According to PubChem BioAssay (NCI):
Several values for one entry are separate records, joined by “and”; a condition that tells them apart may be missing. Identical values can stand only once.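 48-hour exposure; five concentrations; linearly interpolated endpoints. At the GI50, growth is halved. At the TGI there is no net growth.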

Tests used:
Test in all cases: growth of human tumour cells (NCI), 48 h
[1] = test system: NCI-H460 lung
[2] = test system: SF-295 CNS
[3] = test system: U251 CNS
[4] = test system: SW-620 colon
[5] = test system: RPMI-8226 leukemia
[6] = test system: HL-60(TB) leukemia
[7] = test system: HCT-15 colon
[8] = test system: ACHN renal
[9] = test system: K-562 leukemia
[10] = test system: MALME-3M melanoma

SMILES	TGI [1] [µM]	TGI [2] [µM]	TGI [3] [µM]	TGI [4]	TGI [5] [µM]	TGI [6] [µM]	TGI [7] [µM]	TGI [8] [µM]	TGI [9] [µM]	TGI [10] [µM]	GI50 [1] [µM]	GI50 [2] [µM]	GI50 [3] [µM]	GI50 [4] [µM]	GI50 [5] [µM]	GI50 [6] [µM]	GI50 [7] [µM]	GI50 [8] [µM]	GI50 [9] [µM]	GI50 [10] [µM]
Clc1ccc(C(c2ccc(Cl)cc2)c2ccccn2)cc1	34.2	43.4	30.9	44 µM	84.5	55.8	38	45.9	55.6	41.2	–	–	–	–	–	–	–	–	–	–
C#CC1(O)CCC2C3CCc4cc(Oc5nc(F)nc(-c6c7ccccc7c7sc8ccccc8n67)n5)ccc4C3CC[C@@]21C (stereo partly drawn)	> 100	> 100	> 100	> 100 µM	> 100	> 100	> 100	> 100	> 100	> 100	–	–	–	–	–	–	–	–	–	–
Cc1ccc(NC(=O)c2cc3cc(N=Nc4ccccc4C(=O)O)ccc3oc2=O)cc1	> 100	> 100	> 100	> 100 µM	> 100	69.4	> 100	> 100	> 100	> 100	–	–	–	–	–	–	–	–	–	–
CCCCCCN(CCCCCC)C(=O)Cc1c2n(c3ccccc13)Cc1ccccc1-2	> 100	> 100	> 100	> 100 µM	> 100	46.4	> 100	> 100	> 100	> 100	–	–	–	–	–	–	–	–	–	–
CC(C)C(C)/C=C\C(C)C1CCC2C3=CC=C4CC(O)CCC4(C)C3CCC21C (stereo not drawn)	> 53.3	> 100	> 47.7	> 72.3 µM	> 100	> 77.7	> 71.3	> 65.7	> 100	> 50.6	–	–	–	–	–	–	–	–	–	–
N#CC(C#N)=CNC(N)=S	> 100	> 100	> 100	> 100 µM	> 100	> 100	> 100	> 100	> 100	> 100	–	–	–	–	–	–	–	–	–	–
C[Si](C)(C)C1(Sc2ccccc2)SCCCS1	> 100	> 100	> 100	> 100 µM	> 100	33.3	> 100	> 100	> 100	> 100	–	–	–	–	–	–	–	–	–	–
COC(=O)C1=C(C)NC(C)=C(C(=O)OCCCN2CCC(c3ccccc3)(c3ccccc3)CC2)C1c1cccc([N+](=O)[O-])c1 (stereo not drawn)	3.35	3.18	3.21	3.75 µM	5.82	75	3.19	3.05	> 100	3.66	–	–	–	–	–	–	–	–	–	–
C[C@@H]1CCC2[C@@H](C)[C@@H](OCC(CO[C@H]3OC4O[C@@]5(C)CC[C@H]6[C@H](C)CCC([C@H]3C)[C@@]46OO5)OC(=O)CCC(=O)O)OC3O[C@@]4(C)CC[C@@H]1[C@]32OO4 (stereo partly drawn)	15.8	15.8	24.5	18.1 µM	16.5	0.513	12.8	17.5	> 42.2	12.4	< 0.0183	0.0335	< 0.01	0.0285	< 0.01	0.0111	< 0.01	0.126	< 0.0479	< 0.01
OC(c1nc2ccccc2[nH]1)C(O)C(O)C(O)c1nc2ccccc2[nH]1 (stereo not drawn)	> 100	> 100	> 100	> 100 µM	> 100	> 100	> 100	> 100	> 100	> 100	–	–	–	–	–	–	–	–	–	–
COc1ccc(/C=C(/C#N)n2nnc3cccc(F)c32)cc1	4.62	17.8	> 100	> 100 µM	> 100	16.2	> 100	> 100	> 100	> 100	0.703	2.35	1.79	0.399	2.18	0.527	0.401	1.31	0.352	0.69
Nc1ncnc2n[nH]c(Nc3ccc(F)cc3)c12	> 100	> 100	> 100	> 100 µM	> 100	> 100	> 100	> 100	> 100	> 100	16.3	> 100	28.6	18.2	15.1	38.5	8.6	5.46	15.6	30.6
C=C1NC(=O)C(C(C)CC)NC(=O)C2CSCC(NC(=O)CCC(=O)O)C(=O)NC(Cc3ccccc3)C(=O)NC(C)C(=O)NC(CC(C)CC)C(=O)NC(C(=O)NC(Cc3ccccc3)C(=O)N3CCCC3C(=O)N2)C(C)OC(=O)C(CO)NC(=O)C(C(O)COC)N(C)C(=O)C(C(C)C)NC(=O)C(CC(C)CC)NC1=O (stereo not drawn)	> 6	> 6	> 6	> 6 µM	> 6	–	> 6	> 6	> 6	> 6	0.00439	0.00594	0.0101	0.0175	0.0217	0.0211	0.0183	0.0553	0.0124	0.0326
C=C1C(=O)O[C@H]2[C@H]1CC/C(COC(=O)c1c[nH]c3ccccc13)=C\CC[C@@]1(C)O[C@@H]21	3.18	4.47	1.93	0.752 µM	0.281	0.789	0.773	0.592	1.62	1.27	1.1	1.94	0.616	0.234	0.0404	0.278	0.258	0.215	0.279	0.324
O=C(/C=C\c1ccc(Cl)c(Cl)c1)c1ccc(Cl)cc1Cl	54.8	47.1	40.6	8.47 µM and 18.9 µM	41.4	23.3	> 100	31.6	26	35.5	–	–	–	–	2.35	3.46	58	–	1.61	–
